Reference: PMC6979384, “Characterization of the plant homeodomain (PHD) reader family for their histone tail interactions” (Epigenetics & Chromatin, 2020)

Experiments:
Assay in all cases: Histone peptide microarray
Type in all cases: binding, human
Conditions in all cases: sheet "Array Heatmap"
[1] = system: KDM5A (1)
Excerpt: (§1) To more comprehensively define the histone interactions of the 31 PHD readers identified from the domain microarray analyses, we probed each on an alternate microarray platform containing a library of 293 synthetic histone peptides with single or combinatorial PTMs (Additional file 2: Figure S4 and Additional file 3: Table S2).
(§2) The 31 GST-tagged PHD readers identified in the PHD finger domain array were expressed and purified as previously. Histone peptide arrays and peptide pulldown assays were conducted as recently described (specifically, the optimized protocol from Petell et al. for the former).
(§3) Supplementary file 13072_2020_328_MOESM3_ESM.xlsx: Additional file 3: Table S2. […] Excel Tab Peptide List is a compiled list of the entire 293 histone peptide library with amino acid sequence ranges. […] Each number corresponds to the peptide number designated in Peptide List. Excel Tab Average Signals is a compiled set of binding data: chromatin reader at 0.5 μM vs. entire 293 peptide library. Data is presented as the average and standard deviation of 4 replicates. The average signals are colored to indicate signal intensity with green being strong and white being weak/low. […] Key: red= stronger relative binding; blue = weaker relative binding. Excel Tab Array info summary is a table summarizing the domains, sequence coverage, array signal range, and noise for each of the GST-tagged readers assayed on the peptide microarrays.

[2] = system: CHD5 (PPCC)
Excerpt: as §1, §2, §3

[3] = system: PHF2
Excerpt: as §1, §2, §3

[4] = system: ING4
Excerpt: as §1, §2, §3

[5] = system: PHF8
Excerpt: as §1, §2, §3

[6] = system: CHD4 (PPCC)
Excerpt: as §1, §2, §3

[7] = system: KDM7A
Excerpt: as §1, §2, §3

[8] = system: PHF13
Excerpt: as §1, §2, §3

[9] = system: KDM5B (3)
Excerpt: as §1, §2, §3

[10] = system: DIDO1
Excerpt: as §1, §2, §3

[11] = system: ING5
Excerpt: as §1, §2, §3

[12] = system: MORC3 (CW)
Excerpt: as §1, §2, §3

[13] = system: BPTF (PB)
Excerpt: as §1, §2, §3

[14] = system: PHRF1 (RP)
Excerpt: as §1, §2, §3

[15] = system: PHF23
Excerpt: as §1, §2, §3

[16] = system: DPF2 (PPC2W2)
Excerpt: as §1, §2, §3

[17] = system: BAZ2B
Excerpt: as §1, §2, §3

[18] = system: MLL5
Excerpt: as §1, §2, §3

[19] = system: KDM5B (1)
Excerpt: as §1, §2, §3

[20] = system: KDM4C (TTP)
Excerpt: as §1, §2, §3

[21] = system: PHF21A
Excerpt: as §1, §2, §3

[22] = system: TAF3
Excerpt: as §1, §2, §3

[23] = system: ING2
Excerpt: as §1, §2, §3

[24] = system: RAG2
Excerpt: as §1, §2, §3

[25] = system: ING1
Excerpt: as §1, §2, §3

[26] = system: AIRE (PP)
Excerpt: as §1, §2, §3

[27] = system: ING3
Excerpt: as §1, §2, §3

[28] = system: TRIM66 (PB)
Excerpt: as §1, §2, §3

[29] = system: CHD5 (PCC)
Excerpt: as §1, §2, §3

[30] = system: SP140L
Excerpt: as §1, §2, §3

[31] = system: KDM5A (3)
Excerpt: as §1, §2, §3

## H2A (1-17): H2A 1-17 (SGRGKQGGKARAKAKTR; UniProt P0C0S8 2-18, looked up, fragment)
[1]; GST-tagged KDM5A (1), arrays performed twice, total replicate number n = 4
  Array Heatmap signal, KDM5A (1): 0.4209
[2]; GST-tagged CHD5 (PPCC), arrays performed twice, total replicate number n = 4
  Array Heatmap signal, CHD5 (PPCC): 0.4702
[3]; GST-tagged PHF2, arrays performed twice, total replicate number n = 4
  Array Heatmap signal, PHF2: 0.4566
[4]; GST-tagged ING4, arrays performed twice, total replicate number n = 4
  Array Heatmap signal, ING4: 0.3938
[5]; GST-tagged PHF8, arrays performed twice, total replicate number n = 4
  Array Heatmap signal, PHF8: 0.3118
[6]; GST-tagged CHD4 (PPCC), arrays performed twice, total replicate number n = 4
  Array Heatmap signal, CHD4 (PPCC): 0.5048
[7]; GST-tagged KDM7A, arrays performed twice, total replicate number n = 4
  Array Heatmap signal, KDM7A: 0.3435
[8]; GST-tagged PHF13, arrays performed twice, total replicate number n = 4
  Array Heatmap signal, PHF13: 0.527
[9]; GST-tagged KDM5B (3), arrays performed twice, total replicate number n = 4
  Array Heatmap signal, KDM5B (3): 0.4194
[10]; GST-tagged DIDO1, arrays performed twice, total replicate number n = 4
  Array Heatmap signal, DIDO1: 0.6067
[11]; GST-tagged ING5, arrays performed twice, total replicate number n = 4
  Array Heatmap signal, ING5: 0.2875
[12]; GST-tagged MORC3 (CW), arrays performed twice, total replicate number n = 4
  Array Heatmap signal, MORC3 (CW): 0.3444
[13]; GST-tagged BPTF (PB), arrays performed twice, total replicate number n = 4
  Array Heatmap signal, BPTF (PB): 0.2947
[14]; GST-tagged PHRF1 (RP), arrays performed twice, total replicate number n = 4
  Array Heatmap signal, PHRF1 (RP): 0.4275
[15]; GST-tagged PHF23, arrays performed twice, total replicate number n = 4
  Array Heatmap signal, PHF23: 0.4782
[16]; GST-tagged DPF2 (PPC2W2), arrays performed twice, total replicate number n = 4
  Array Heatmap signal, DPF2 (PPC2W2): 0.6154
[17]; GST-tagged BAZ2B, arrays performed twice, total replicate number n = 4
  Array Heatmap signal, BAZ2B: 0.3936
[18]; GST-tagged MLL5, arrays performed twice, total replicate number n = 4
  Array Heatmap signal, MLL5: 0.5078
[19]; GST-tagged KDM5B (1), arrays performed twice, total replicate number n = 4
  Array Heatmap signal, KDM5B (1): 0.663
[20]; GST-tagged KDM4C (TTP), arrays performed twice, total replicate number n = 4
  Array Heatmap signal, KDM4C (TTP): 0.4226
[21]; GST-tagged PHF21A, arrays performed twice, total replicate number n = 4
  Array Heatmap signal, PHF21A: 0.4214
[22]; GST-tagged TAF3, arrays performed twice, total replicate number n = 4
  Array Heatmap signal, TAF3: 0.223
[23]; GST-tagged ING2, arrays performed twice, total replicate number n = 4
  Array Heatmap signal, ING2: 0.6045
[24]; GST-tagged RAG2, arrays performed twice, total replicate number n = 4
  Array Heatmap signal, RAG2: 0.2183
[25]; GST-tagged ING1, arrays performed twice, total replicate number n = 4
  Array Heatmap signal, ING1: 0.4879
[26]; GST-tagged AIRE (PP), arrays performed twice, total replicate number n = 4
  Array Heatmap signal, AIRE (PP): 0.3792
[27]; GST-tagged ING3, arrays performed twice, total replicate number n = 4
  Array Heatmap signal, ING3: 0.4033
[28]; GST-tagged TRIM66 (PB), arrays performed twice, total replicate number n = 4
  Array Heatmap signal, TRIM66 (PB): 0.5087
[29]; GST-tagged CHD5 (PCC), arrays performed twice, total replicate number n = 4
  Array Heatmap signal, CHD5 (PCC): 0.7396
[30]; GST-tagged SP140L, arrays performed twice, total replicate number n = 4
  Array Heatmap signal, SP140L: 0.3296
[31]; GST-tagged KDM5A (3), arrays performed twice, total replicate number n = 4
  Array Heatmap signal, KDM5A (3): 0.3954

## H2A (10-25): H2A 10-25 (ARAKAKTRSSRAGLQF; UniProt P0C0S8 11-26, looked up, fragment)
[1]; KDM5A (1), each array performed twice, total n = 4
  Array Heatmap value (peptide array signal): 0.4831
[2]; CHD5 (PPCC), each array performed twice, total n = 4
  Array Heatmap value (peptide array signal): 0.5571
[3]; PHF2, each array performed twice, total n = 4
  Array Heatmap value (peptide array signal): 0.4378
[4]; ING4, each array performed twice, total n = 4
  Array Heatmap value (peptide array signal): 0.4661
[5]; PHF8, each array performed twice, total n = 4
  Array Heatmap value (peptide array signal): 0.3624
[6]; CHD4 (PPCC), each array performed twice, total n = 4
  Array Heatmap value (peptide array signal): 0.556
[7]; KDM7A, each array performed twice, total n = 4
  Array Heatmap value (peptide array signal): 0.3832
[8]; PHF13, each array performed twice, total n = 4
  Array Heatmap value (peptide array signal): 0.6145
[9]; KDM5B (3), each array performed twice, total n = 4
  Array Heatmap value (peptide array signal): 0.4449
[10]; DIDO1, each array performed twice, total n = 4
  Array Heatmap value (peptide array signal): 0.6569
[11]; ING5, each array performed twice, total n = 4
  Array Heatmap value (peptide array signal): 0.3701
[12]; MORC3 (CW), each array performed twice, total n = 4
  Array Heatmap value (peptide array signal): 0.3714
[13]; BPTF (PB), each array performed twice, total n = 4
  Array Heatmap value (peptide array signal): 0.3546
[14]; PHRF1 (RP), each array performed twice, total n = 4
  Array Heatmap value (peptide array signal): 0.4431
[15]; PHF23, each array performed twice, total n = 4
  Array Heatmap value (peptide array signal): 0.5294
[16]; DPF2 (PPC2W2), each array performed twice, total n = 4
  Array Heatmap value (peptide array signal): 0.6893
[17]; BAZ2B, each array performed twice, total n = 4
  Array Heatmap value (peptide array signal): 0.4876
[18]; MLL5, each array performed twice, total n = 4
  Array Heatmap value (peptide array signal): 0.5534
[19]; KDM5B (1), each array performed twice, total n = 4
  Array Heatmap value (peptide array signal): 0.668
[20]; KDM4C (TTP), each array performed twice, total n = 4
  Array Heatmap value (peptide array signal): 0.5121
[21]; PHF21A, each array performed twice, total n = 4
  Array Heatmap value (peptide array signal): 0.4834
[22]; TAF3, each array performed twice, total n = 4
  Array Heatmap value (peptide array signal): 0.2598
[23]; ING2, each array performed twice, total n = 4
  Array Heatmap value (peptide array signal): 0.647
[24]; RAG2, each array performed twice, total n = 4
  Array Heatmap value (peptide array signal): 0.2471
[25]; ING1, each array performed twice, total n = 4
  Array Heatmap value (peptide array signal): 0.5431
[26]; AIRE (PP), each array performed twice, total n = 4
  Array Heatmap value (peptide array signal): 0.4997
[27]; ING3, each array performed twice, total n = 4
  Array Heatmap value (peptide array signal): 0.4796
[28]; TRIM66 (PB), each array performed twice, total n = 4
  Array Heatmap value (peptide array signal): 0.5591
[29]; CHD5 (PCC), each array performed twice, total n = 4
  Array Heatmap value (peptide array signal): 0.8105
[30]; SP140L, each array performed twice, total n = 4
  Array Heatmap value (peptide array signal): 0.3704
[31]; KDM5A (3), each array performed twice, total n = 4
  Array Heatmap value (peptide array signal): 0.4414
